One test has as its system DMS79 cells. Briefly: BrdU analysis. Conditions: 100 nM, 24 and 48 hour. The class given is cell-based, human. The procedure:
Cells were seeded in 6-well plates (0.5-1×10^6 cells/well) in media and treated with YKL-5-124 at indicated concentrations and time points. Prior to collection, cells were pulsed with […] BrdU (BD Biosciences, #559619) for 2-4 hr (depending on cell line doubling time) and collected by centrifugation. Hereafter cells were permeabilized, fixated and stained according to BrdU kit instruction (BD Biosciences, Cat #559619). Cells were gated for BrdU incorporation (FITC) and 7-aminoactinomycin D (7-AAD) to quantify cells in G1, S (BrdU positive) and G2/M.

For a further test, the system named is RPP GEMMs. Description: Treatment study in autochthonous RPP GEMMs. Format: in vivo, mouse. The procedure: (§1) All animal studies were reviewed and approved by the Institutional Animal Care and Use Committee (IACUC) at the New York University Langone Health (NYULH) and Dana-Farber Cancer Institute (DFCI). From 6 weeks of age, mice were induced with adenovirus-Cre recombinase (Ad-Cre) by intratracheal intubation to allow cre-lox-mediated recombination of floxed Rb1, p53 and p130 alleles. For syngeneic orthotopic models, ultrasound-guided transthoracic injection was performed using 200,000 RPP631, RP or RPP-MYC cells in 30 μL PBS directly into the lung of 6 to S-week-old C57BL/6 (Jackson Laboratory, Stock No: 000664). For OT-IT cell assay, OT-I mice were purchased from the Jackson Laboratory (Stock No: 003S31). Both males and females mice were used and all mice were maintained in accordance with the respective NYULH and DFCI on the care, welfare, and treatment of laboratory animals. […]
(§2) Animals were anesthetized with isoflurane to perform MRI of the lung field using BioSpec USR70/30 horizontal bore system (Bruker) to scan 24 consecutive sections. Tumor volumes within the whole lung were quantified using 3-D slicer software to reconstruct MRI volumetric measurements as described previously. […]

The test system of test [1] is INSM1, ASCL1, NFIB and MYC in DMS79 and GLC16. Description: RT-qPCR of super enhancer (SE)-associated genes. Format: cell-based, human. The note with it: 24 hr. The procedure:
Cell pellets were collected and then subjected to total RNA extraction using RNeasy Plus Mini Kit (QIAGEN, Cat #74136) according to the manufacturer's instructions, or using TRIzol:Chloroform phase-separation by centrifugation followed by RNA precipitation using isopropanol. The extracted RNA was reversely transcribed into cDNA using the High-Capacity RNA-to-cDNA™ Kit (Thermo Fisher Scientific, Cat #4387406) according to the manufacturer's instructions. The obtained cDNA samples were diluted and used for RT-qPCR. PowerUp™ SYBR™ Green Master Mix (Thermo Fisher Scientific, Cat #A25742) or TaqMan Gene Expression Master Mix (Life Technologies, Cat #4369514). Gene specific primers with sequences listed in Table 3 were used for PCR amplification and detection on the StepOnePlus™ Real-Time PCR System (Thermo Fisher Scientific). RT-qPCR data were normalized to Actb (mouse cells) or GUSB (human cells) and presented as fold changes of gene expression in the test sample compared to the control.

A further test concerns RPP orthotopic model. Description: Treatment study in RPP orthotopic SCLC model. The class given is in vivo, mouse. The method, then:
as §1, §2

The next test concerns RPP631 cells. Briefly: EdU and MCM2 imaging by STORM. Conditions: 100 nM, 48 and 72 hr. The class given is cell-based, mouse. The method, then:
RPP631 cells were incubated in the presence of 100 nM YKL-5-124 for 48-72 hr. EdU was pulsed during the last 30 minutes of YKL-5-124 treatment. Treated cells were pre-extracted using 0.5% Triton in CSK buffer (10 mM Hepes, 300 mM Sucrose, 100 mM NaCl, and 3 mM MgCl2, pH=7.6) for 10 minutes, and fixed with paraformaldehyde (4%) for 30 minutes. Cells were then rinsed 3 times with PBS and blocked (2% glycine, 2% BSA, 0.2% gelatin, and 50 mM NH4Cl in PBS) overnight at 4° C. for further staining. […]
STORM imaging was performed on a customized inverted microscope. […] Cell samples were sequentially illuminated with 639 and 750 laser lines and the emitted fluorescence was collected by the same objective with a 2× magnification tube lens (Diagnostic Instruments). The fluorescence was then filtered by single band filters (Semrock FF01-676/37 and FF02-809/81) switched in a filter wheel accordingly. […]
Each 2000-frame single-molecule image stack was submitted to a home-built software for precise single-molecule localization. […] The fitting accuracy was evaluated using Cramer-Rao Lower Bound (CRLB). Note that the patterned read-out noise of the sCMOS camera was calibrated before imaging. Such read-out noise for each pixel was approximated into a Gaussian distribution and convolved with the Poisson shot noise for MLE fitting. […] The number of fluorophores is proportional to the quantity of EdU and MCM2. […]

For `C=CC(=O)Nc1ccc(C(=O)Nc2n[nH]c3c2CN(C(=O)N[C@H](CN(C)C)c2ccccc2)C3(C)C)cc1` [YKL-5-124], in the test on DMS79 cells, the “BrdU-incorporated S-phase cells” value was “significant decrease”. Further, in the test on RPP GEMMs (3-week time point), the “mice with more than 50% increase of tumor burden” value is listed as “none”. The median overall survival with RPP GEMMs (RPP GEMMs) is recorded as 56 days. The “expression of super enhancer (SE)-associated genes including INSM1, ASCL1, NFIB and MYC” value in test [1] is on record as “no effect”. Also, the “added median survival benefit” value in the test on RPP orthotopic model (RPP model, vs control) was “approximately 30 days”. Moreover, in the test on RPP orthotopic model (RPP orthotopic model, 2- to 3-week), the “tumor response / tumor growth (MRI tumor volume)” value is “significant tumor response”. Besides, in the test with RPP631 cells, the “EdU content in each nucleus and in each focus” value was “dramatic decrease”; the “MCM2 content in each nucleus and replication focus” value is listed as “significant decline”.

Source of the values: patent US20230114207A1, “THE COMBINATION OF CYCLIN DEPENDENT KINASE 7 INHIBITOR AND IMMUNOTHERAPY FOR TREATMENT OF CANCER” (Dana-Farber Cancer Institute, Inc., priority 2019, published 2023).
